Experimental findings from PubChem BioAssay AID1259407 (Chemical Carcinogenesis Research Information System (CCRIS), 2018) are described below.

Active and inactive are the calls of the source. How the calls were made is not given here.

The test system of this data set is CCRIS mutagenicity, Ames/micronucleus/aberration tests. Description: CCRIS mutagenicity studies.
The mark [1] stands for this setting: Test System: AMES SALMONELLA TYPHIMURIUM, Strain/Indicator: TA98, Metabolic Activation: NONE, Method: STANDARD PLATE.
[2] abbreviates: Test System: AMES SALMONELLA TYPHIMURIUM, Strain/Indicator: TA98, Metabolic Activation: RAT, LIVER, S-9, AROCLOR 1254, Method: STANDARD PLATE.
[3] abbreviates: Test System: AMES SALMONELLA TYPHIMURIUM, Strain/Indicator: TA100, Metabolic Activation: NONE, Method: STANDARD PLATE.
[4] abbreviates: Test System: AMES SALMONELLA TYPHIMURIUM, Strain/Indicator: TA1535, Metabolic Activation: NONE, Method: STANDARD PLATE.
Where [5] appears, read: Test System: AMES SALMONELLA TYPHIMURIUM, Strain/Indicator: TA1538, Metabolic Activation: NONE, Method: STANDARD PLATE.
Where [6] appears, read: Test System: AMES SALMONELLA TYPHIMURIUM, Strain/Indicator: TA1538, Metabolic Activation: RAT, LIVER, S-9, AROCLOR 1254, Method: STANDARD PLATE.

As for `O=[N+]([O-])c1ccc(NO)cc1`, the mutagenic call (Test System: AMES SALMONELLA TYPHIMURIUM, Strain/Indicator: TA98(NR), Metabolic Activation: NONE, Method: STANDARD PLATE) was “active; positive”; the mutagenic call (Test System: AMES SALMONELLA TYPHIMURIUM, Strain/Indicator: TA98(NR), Metabolic Activation: RAT, LIVER, S-9, AROCLOR 1254, Method: STANDARD PLATE) is “inactive; negative”; the mutagenic call under setting [1] was “active; positive”; the mutagenic call under setting [2] is “active; positive”; the mutagenic call under setting [3] was “active; positive”; the mutagenic call under setting [4] was “active; positive”. In addition, the mutagenic call is “active; positive” (Test System: AMES SALMONELLA TYPHIMURIUM, Strain/Indicator: TA1538(NR), Metabolic Activation: NONE, Method: STANDARD PLATE); “active; positive” (Test System: AMES SALMONELLA TYPHIMURIUM, Strain/Indicator: TA1538(NR), Metabolic Activation: RAT, LIVER, S-9, AROCLOR 1254, Method: STANDARD PLATE); “active; positive” under setting [5]; “active; positive” under setting [6]; “active; positive” (Test System: E. COLI, Strain/Indicator: WP2 UVRA(P), Metabolic Activation: NONE, Method: STANDARD PLATE); “active; positive” (Test System: E. COLI, Strain/Indicator: WP2 UVRA, Metabolic Activation: NONE, Method: FLUCTUATION TEST). The mutagenic call (Test System: E. COLI, Strain/Indicator: WP2 UVRA, Metabolic Activation: NONE, Method: STANDARD PLATE) was “inactive; negative”.

With `CC(C)CC(NC(=O)COc1ccc(Cl)cc1Cl)C(=O)O` (centres undefined), the mutagenic call is, setting by setting: (Test System: AMES SALMONELLA TYPHIMURIUM, Strain/Indicator: TA97, Metabolic Activation: RAT, LIVER, S-9, AROCLOR 1254, Method: STANDARD PLATE) “inactive; negative”; (Test System: AMES SALMONELLA TYPHIMURIUM, Strain/Indicator: TA97, Metabolic Activation: WOODCHUCK, LIVER, S-9, 3-METHYLCHOLANTHRENE, Method: STANDARD PLATE) “inactive; negative”; under setting [2], “inactive; negative”; (Test System: AMES SALMONELLA TYPHIMURIUM, Strain/Indicator: TA98, Metabolic Activation: WOODCHUCK, LIVER, S-9, 3-METHYLCHOLANTHRENE, Method: STANDARD PLATE) “inactive; negative”; (Test System: AMES SALMONELLA TYPHIMURIUM, Strain/Indicator: TA100, Metabolic Activation: RAT, LIVER, S-9, AROCLOR 1254, Method: STANDARD PLATE) “inactive; negative”; (Test System: AMES SALMONELLA TYPHIMURIUM, Strain/Indicator: TA100, Metabolic Activation: WOODCHUCK, LIVER, S-9, 3-METHYLCHOLANTHRENE, Method: STANDARD PLATE) “inactive; negative”. For the same molecule, the mutagenic call is “inactive; negative” (Test System: AMES SALMONELLA TYPHIMURIUM, Strain/Indicator: TA1535, Metabolic Activation: RAT, LIVER, S-9, AROCLOR 1254, Method: STANDARD PLATE); “inactive; negative” (Test System: AMES SALMONELLA TYPHIMURIUM, Strain/Indicator: TA1535, Metabolic Activation: WOODCHUCK, LIVER, S-9, 3-METHYLCHOLANTHRENE, Method: STANDARD PLATE); “inactive; negative” under setting [6]; “inactive; negative” (Test System: AMES SALMONELLA TYPHIMURIUM, Strain/Indicator: TA1538, Metabolic Activation: WOODCHUCK, LIVER, S-9, 3-METHYLCHOLANTHRENE, Method: STANDARD PLATE).

Regarding `C1CSCCO1`, the mutagenic call reads like this: under setting [1], “inactive; negative”; (Test System: AMES SALMONELLA TYPHIMURIUM, Strain/Indicator: TA98, Metabolic Activation: S-9, Method: STANDARD PLATE) “inactive; negative”; under setting [3], “inactive; negative”; (Test System: AMES SALMONELLA TYPHIMURIUM, Strain/Indicator: TA100, Metabolic Activation: S-9, Method: STANDARD PLATE) “inactive; negative”; under setting [4], “inactive; negative”; (Test System: AMES SALMONELLA TYPHIMURIUM, Strain/Indicator: TA1535, Metabolic Activation: S-9, Method: STANDARD PLATE) “inactive; negative”. Also, the mutagenic call (Test System: AMES SALMONELLA TYPHIMURIUM, Strain/Indicator: TA1537, Metabolic Activation: NONE, Method: STANDARD PLATE) was “inactive; negative”; the mutagenic call (Test System: AMES SALMONELLA TYPHIMURIUM, Strain/Indicator: TA1537, Metabolic Activation: S-9, Method: STANDARD PLATE) is “inactive; negative”; the mutagenic call under setting [5] is “inactive; negative”; the mutagenic call (Test System: AMES SALMONELLA TYPHIMURIUM, Strain/Indicator: TA1538, Metabolic Activation: S-9, Method: STANDARD PLATE) is “inactive; negative”.

Regarding `C1CC2OC2CC1C1CO1` (centres undefined), the mutagenic call (Test System: AMES SALMONELLA TYPHIMURIUM, Strain/Indicator: TA98, Metabolic Activation: HAMSTER, LIVER, S-9, AROCLOR 1254, Method: PREINCUBATION) was “active; positive”; the mutagenic call (Test System: AMES SALMONELLA TYPHIMURIUM, Strain/Indicator: TA98, Metabolic Activation: NONE, Method: PREINCUBATION) is “active; positive”; the mutagenic call (Test System: AMES SALMONELLA TYPHIMURIUM, Strain/Indicator: TA98, Metabolic Activation: RAT, LIVER, S-9, AROCLOR 1254, Method: PREINCUBATION) was “active; positive”; the mutagenic call (Test System: AMES SALMONELLA TYPHIMURIUM, Strain/Indicator: TA100, Metabolic Activation: HAMSTER, LIVER, S-9, AROCLOR 1254, Method: PREINCUBATION) was “active; positive”; the mutagenic call (Test System: AMES SALMONELLA TYPHIMURIUM, Strain/Indicator: TA100, Metabolic Activation: NONE, Method: PREINCUBATION) is “active; positive”; the mutagenic call (Test System: AMES SALMONELLA TYPHIMURIUM, Strain/Indicator: TA100, Metabolic Activation: RAT, LIVER, S-9, AROCLOR 1254, Method: PREINCUBATION) was “active; positive”. Moreover, the mutagenic call (Test System: AMES SALMONELLA TYPHIMURIUM, Strain/Indicator: TA1535, Metabolic Activation: HAMSTER, LIVER, S-9, AROCLOR 1254, Method: PREINCUBATION) is “active; positive”; the mutagenic call (Test System: AMES SALMONELLA TYPHIMURIUM, Strain/Indicator: TA1535, Metabolic Activation: NONE, Method: PREINCUBATION) was “active; positive”; the mutagenic call (Test System: AMES SALMONELLA TYPHIMURIUM, Strain/Indicator: TA1535, Metabolic Activation: RAT, LIVER, S-9, AROCLOR 1254, Method: PREINCUBATION) is “active; positive”; the mutagenic call (Test System: AMES SALMONELLA TYPHIMURIUM, Strain/Indicator: TA1537, Metabolic Activation: HAMSTER, LIVER, S-9, AROCLOR 1254, Method: PREINCUBATION) was “active; positive”; the mutagenic call (Test System: AMES SALMONELLA TYPHIMURIUM, Strain/Indicator: TA1537, Metabolic Activation: RAT, LIVER, S-9, AROCLOR 1254, Method: PREINCUBATION) is “active; positive”; the mutagenic call (Test System: MOUSE LYMPHOMA, Strain/Indicator: L5178Y (TK+/TK-), Metabolic Activation: NONE, Method: SUSPENSION/PLATE) is “active; positive”.

In the case of `COc1cc(N=Nc2ccccc2)ccc1N`, the mutagenic call reads like this: (Test System: AMES SALMONELLA TYPHIMURIUM, Strain/Indicator: TA98, Metabolic Activation: RAT LIVER, CYTOSOL, AROCLOR 1254, Method: PREINCUBATION) “inactive; negative”; (Test System: AMES SALMONELLA TYPHIMURIUM, Strain/Indicator: TA98, Metabolic Activation: RAT LIVER, MICROSOMES, AROCLOR 1254, Method: PREINCUBATION) “active; positive”; (Test System: AMES SALMONELLA TYPHIMURIUM, Strain/Indicator: TA98, Metabolic Activation: RAT, LIVER, MICROSOMES, 3-METHOXY-4-AMINOAZOBENZENE, Method: PREINCUBATION) “inactive; negative”; (Test System: AMES SALMONELLA TYPHIMURIUM, Strain/Indicator: TA98, Metabolic Activation: RAT, LIVER, MICROSOMES, AROCLOR 1254, Method: PREINCUBATION) “active; positive”; (Test System: AMES SALMONELLA TYPHIMURIUM, Strain/Indicator: TA98, Metabolic Activation: RAT, LIVER, MICROSOMES, Method: PREINCUBATION) “inactive; negative”; under setting [2], “active; positive”. In addition, the mutagenic call (Test System: AMES SALMONELLA TYPHIMURIUM, Strain/Indicator: TA98, Metabolic Activation: RAT, LIVER, S-9, KC500 OR PHENOBARBITAL, Method: LIQUID SUSPENSION) is “active; positive”; the mutagenic call (Test System: AMES SALMONELLA TYPHIMURIUM, Strain/Indicator: TA100, Metabolic Activation: RAT, LIVER, S-9, KC500 OR PHENOBARBITAL, Method: LIQUID SUSPENSION) was “active; positive”; the mutagenic call under setting [6] is “active; positive”.
